Assay results published in publication PMC2652713, “Molecular Blocking of CD23 Supports Its Role in the Pathogenesis of Arthritis” (PLoS ONE, 2009).

Legend:
CD23 [1] = experiment: CD23 western blot on CD23+ B-cell line extract; format: binding, human; conditions: CD23+ B cell line extract (50 µg protein), blot pre-incubated with p30A 10 µg/ml (methods: 10, 20 and 40 µg/ml, 2 h)
Description: Figure 1 Specific blockade of CD23 reactivity by p30A. Flow cytometry analysis showing the inhibition of (A) anti-CD23-FITC (20 µg/ml) or (B) IgE (10 µg/ml)/anti-IgE-FITC (1 µg/ml) binding to CD23^+ human PBL-derived macrophages (red lines) or following their pre-incubation with p30A peptides (10 µg/ml) (blue lines). (C) CD23 western blot was performed on total protein extract from à CD23^+ B-cell line. The detection with CD23-McAb followed the pre-incubation of the blot with or without p30A (10 µg/ml). Similar protein quantity (50 µg) was used for each western blot condition.
Total cellular proteins were isolated from CD23^+, ADAM B-cell line in cell lysis buffer (10 mM Tris pH 8.0, 150 mM NaCl, 5 mM EDTA, 1% Triton X-100, 0.05% SDS, 10 mM Sodium Fluoride, 1 mM Sodium Orthovanadate, 5 µM Molibdic Acid) and a mixture of protease inhibitors (all from Sigma Aldrich, Saint Quentin Fallavier, France). Protein concentration was determined using the Bradford assay (Bio Rad, Hemel Hempstead, UK). Protein samples (50 µg total protein) were subjected to SDS-PAGE using a 12% resolving gel. […] Immunoreactive bands (CD23 and Bcl2) were detected using the FluorChem 8800 (Alpha Innotech, San Leandro, USA) and semi-quantified by densitometry using AlphaEase FC (Alpha Innotech).

human CD23+ macrophages = experiment: Cell mortality and apoptosis with p30A versus medium alone; format: cell-based
[2] = test system: rat peritoneal macrophages; experiment: NO generation by IgE/DNP-activated rat peritoneal macrophages; format: cell-based
Description: Figure 6 Inhibition of in vitro and in vivo inflammatory responses in rats by p30A peptide. (A) Rat peritoneal macrophages were activated via CD23 antigens with/without p30A, L-NIL or pCtl. Cell supernatants were collected 48 h later and nitrite levels were quantified. Values are mean±s.d. of cells from 3 different rats. (B) Cumulative clinical score/rat obtained following 50 days post-immunization in all groups. AIA rats were treated either after or before (d0) the onset of symptoms. Treatment consisted of p30A, hydrocortisone (HC, 30 mg/rat)) or pCtl (100 mg/rat). Shown are means of cumulative score/rat±s.d. from 5 (HC) or 8 rats (other conditions). (C) Evolution of arthritis severity scores of adjuvant-induced arthritis (AIA) in rats treated with intracutaneous p30A or pCtl (100 mg/rat) or hydrocortisone (after the onset of clinical signs as illustrated by arrows (means from 8 rats, s.e.m.<20%). (D) Histopathologic analysis confirm p30A ability to decrease all components of AIA lesions: pannus formation and inflammation of the synovium (P), deformity of joint and bones (asterix), bone remodeling and destruction (arrowhead), bone neoformation (arrows) and cartilage destruction.
Culture supernatants (72 h) were assayed for the stable end-product of NO, NO2 ^− using the Griess reaction modified as detailed elsewhere. […]

[3] = test system: peritoneal macrophages of AIA rats; experiment: Ex vivo cytokine release from peritoneal macrophages of treated AIA rats, ELISA; format: in vivo, rat, Female Lewis; conditions: cells collected 50 days post-immunization, 48 h culture, 4 rats
Description: AIA rats were treated either after (AIA+p30A) or before (p30A+AIA) the onset of symptoms. Treatment consisted of p30A (10 mg/rat) or hydrocortisone (HC, 30 mg/rat). Rat peritoneal macrophages were collected following 50 days post-immunization, washed and re-incubated in culture medium alone. Cell supernatants were collected 48 h later and cytokine levels were quantified. Macrophages from healthy rats were also incubated in similar conditions. Values are mean±s.d. of cells from 4 different rats.
Adjuvant arthritis was induced in six week-old animals by subcutaneous injection at the base of the tail of 300 µl containing 1.8 mg of inactivated Mycobacterium butyricum (Difco Laboratories, Detroit, MI) diluted in emulsion of 8 ml Vaseline, 1 ml polysorbate 80, and 1 ml PBS (Phosphate Buffer Saline, Eurobio). Rats were boosted one week later following the same procedure. Observation was conducted for up to 50 days following immunization for clinical signs of arthritis. Rats were divided in different groups of 8 rats. Groups were treated with five injections (every 2 days) of either p30A (10, 50 or 100 mg in a PBS solution), pCtl, hydrocortisone (Sigma Aldrich) or PBS solution. Injections were initiated two days after the appearance of first arthritic symptoms (therapeutic) or on the first day of immunization (preventive). […] Rats were sacrificed 50 days after AIA induction. Peritoneal macrophages were collected and incubated in culture medium alone for 48 h. Quantification of TNF-α and IL-1β in rat cell supernatants was performed using appropriate ELISA kits and according to manufacturer's recommendations (Biosource, Montrouge, France).

rat CD23+ macrophages = experiment: IgE-mediated activation of rat CD23+ macrophages; format: cell-based
Description: Peptides were added one hour prior to cell activation.

CD23 [4] = test system: CD23
[5] = treatment before onset of symptoms (p30A+AIA, 10 mg/rat)

FHENWPS [p30A]
block of detection of CD23 protein by CD23-McAb (CD23 [1]): block
cell mortality and apoptosis (human CD23+ macrophages; in the presence of p30A compared to cells in medium alone, no significant variations): < 5%
cell toxicity (human CD23+ macrophages; monocytes/macrophages): without cell toxicity
reversal of IgE/DNP activation ([2]; rat macrophages ex-vivo): able to reverse the IgE/DNP activation of rat macrophages ex-vivo
CD23-mediated induction of NO generation ([2]; rat peritoneal macrophages, IgE/DNP, peptide 1 h prior, supernatants at 48 h, 3 rats): significant decrease in CD23-mediated induction of NO generation
TNFα release ex vivo, therapeutic ([3]; treatment after onset of symptoms (AIA+p30A, 10 mg/rat)): dramatically reduced both IL-1β and TNFα levels
IL-1β release ex vivo, therapeutic ([3]; treatment after onset of symptoms (AIA+p30A, 10 mg/rat; HC 30 mg/rat)): dramatically reduced both IL-1β and TNFα levels
IL-1β release ex vivo, preventive [3, 5]: dramatically reduced both IL-1β and TNFα levels
TNFα release ex vivo, preventive [3, 5]: dramatically reduced both IL-1β and TNFα levels
IgE-mediated activation of rat CD23+ macrophages (rat CD23+ macrophages): decreased IgE-mediated activation of both human and rat CD23^+ macrophages
side agonistic effect (CD23 [4]): absence of side agonistic effect
